Measurements published in patent publication US20220146492A1, “CELL MEMBRANE PERMEABILITY RESTORING THERAPY” (priority 2019, published 2022).

Test system: RBCs
Experiment: Cell scan of RBC membrane permeability (Pk0) after contacting whole blood from a healthy volunteer with an agent
Type: cell-based, human
Settings: for Induction of water permeability resistance (decreased RBC membrane permeability to water): agents at concentrations consistent with in vivo concentration; for Pk0 (mOsm/kg): whole blood in ACD, healthy volunteer, measured after exposure (method: five minutes), lactose 1:20 (v/v) saturated lactose solution, amphotericin B 0.5 μg/mL
Method: A sample of whole blood from a healthy volunteer was drawn into ACD anticoagulant. The unwashed sample was divided into aliquots and was analyzed using the Prior Shine Technology and/or the Provided Cell Scanning Technologies. The following outputs were obtained from the sample:
Using the technologies described herein, a cell-by-cell analysis was converted into a plot of percent change of cell volume vs. osmolality (“Cell Scan Plot”) by converting the individual peak voltage into a cell volume, then calculating a mean volume for an aliquot of cells, and plotting the means to generate the Cell Scan Plot. The percentage change of cell volume at each osmolality is calculated and compared to the mean cell volume of an isotonic cell (e.g., FIG. 1b). On such a plot, Pk0 (see 101) is the osmotic pressure at which the net water flow is zero (i.e., when a cell achieved its maximum volume, i.e., when it is a perfect sphere). As described herein, in some embodiments, Pk0 can be used as an indicator of an individual's health status.
A sample of whole blood from a healthy volunteer was drawn into ACD anticoagulant. Blood samples were divided into aliquots, and each sample was contacted with an agent at concentrations consistent with the agent's in vivo concentration. Agents that were tested included alcohols, alpha fetoproteins, amphotericin B, bovine albumen, carcinoembryonic antigen (CEA), concanavalin A (Con A), fetuin, fibronectin, 5-HT, kallikrein, ovomucoid, prostacyclin, prostaglandin, semen, transferrin, and several sugars, including N-acetyl-D-glucosamine, N-acetyl neurominic acid, 2-deoxy-D-ribose, fructose, D- and L-arabinose, beta-D-galactopyranoside, erythrose, D- and L-fucose, D- and L-glucose, D-galactose, lactose, maltose, iso-maltose, D-mannose, mannitol, L-rhamnose, ribose, sucrose, and D-xylose. Five minutes after exposure to an agent, the blood sample was evaluated for cell membrane permeability and Pk0 was measured. […] Lactose ([…]) lowered Pk0 to 110 mOsm/kg.
A sample of whole blood from a healthy volunteer was drawn into ACD anticoagulant. The sample was then treated with 5-HT (900 ng/mL), and cell membrane permeability was evaluated 5 minutes after treatment.

| Structure (SMILES) | Pk0 after treatment with 5-HT (5-HT 900 ng/mL, 5 minutes after treatment, normal Pk0 before approx. 140 mOsm/kg (FIG. 8)) | Pk0 shift after contacting with 5-HT (FIG. 8, RBCs from normal healthy individual, before vs after 5-HT) | Induction of water permeability resistance (decreased RBC membrane permeability to water) | Pk0 (mOsm/kg) (5-HT 900 ng/mL) | Pk0 lowered to (after 10 minutes) [mOsm/kg] |
| --- | --- | --- | --- | --- | --- |
| NCCc1c[nH]c2ccc(O)cc12 [Agent 5-HT, 5-hydroxytryptamine] | approx. 110 mOsm/kg | approx. 30 mOsm/kg | effective within minutes | 110 | – |
| C[C@@H]1[C@H](O)[C@@H](C)/C=C/C=C/C=C/C=C/C=C/C=C/C=C/[C@H](O[C@@H]2O[C@H](C)[C@@H](O)[C@H](N)[C@@H]2O)C[C@@H]2O[C@](O)(C[C@@H](O)C[C@@H](O)[C@H](O)CC[C@@H](O)C[C@@H](O)CC(=O)O[C@H]1C)C[C@H](O)[C@H]2C(=O)O [Amphotericin B] | – | – | identified as RBC membrane permeability decreasing agents | 85 | – |
| OC[C@H]1O[C@@H](O[C@H]2[C@H](O)[C@@H](O)C(O)O[C@@H]2CO)[C@H](O)[C@@H](O)[C@H]1O (stereo partly drawn) [Lactose] | – | – | identified as RBC membrane permeability decreasing agents | 110 | 110 |
